# Test results from article PMC10959927, “Platinum iodido drugs show potential anti-tumor activity, affecting cancer cell metabolism and inducing ROS and senescence in gastrointestinal cancer cells” (Communications Biology, 2024).
# Several values for one entry are separate records, joined by “and”; a condition that tells them apart may be missing. Equal entries are not always repeated.
# Columns and labels:
# Assay type in all cases: cell-based, human
# PANC1 cells [1] = test: Ratio GSH/GSSG, colorimetric kit
# Summary of the method: (§1)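 AGS and PANC1 cells were exposed to compounds for 3 and 24 h, with H2O2 as positive control. GSSG was measured separately after 2-vinylpyridine treatment to give the GSH/GSSG ratio.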
# AGS cells [2] = test: Ratio GSH/GSSG, colorimetric kit
# Summary of the method: as §1
# MKN45 cells [3] = test: Immunofluorescence of γ-H2AX foci; conditions: Fig. 3B; for foci/cell, number of cells in class: cell count
# Method: Cells (7 × 10^4) were seeded on 20 mm coverslips. […] Coverslips were incubated for 1 h with the primary antibody (Cell Signaling: H2AX Ser139 (#2595) and 53BP1 (#4937)) at room temperature, followed by a 1 h incubation with the appropriate secondary antibody. DNA was stained with DAPI. Fluorescence microscopy was performed using a NIKON Eclipse 90i. The image analysis was performed using the software program Nikon NIS-Elements and Image J.
# MKN45 cells [4] = test: Clonogenic (CFU) assay with or without NAC; conditions: 10 days
# Method: (§2) For the clonogenic assay we used two different approaches. […] Then, cells were cultured in a 6-well plate at a very low concentration (2 × 10^3 cells per well) and incubated for 10 days. […] To evaluate the role of ROS in cell proliferation, we supplemented the growth medium with 0.5 mM NAC. After 10 days, the cells were fixed with 1% glutaraldehyde and stained with 0.1% crystal violet. The number of colonies was quantified directly and reflected as CFUs: Colony Forming Units.
# AGS cells [5] = test: Clonogenic (CFU) assay with or without NAC; conditions: IC50 concentration, 10 days
# Method: as §2
# AGS cells [6] = test: SA-β-Gal histochemical staining; conditions: Fig. S4A
# Summary of the method: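 AGS, MKN45 or PANC1 cells (5×10^4) were seeded in 24-well plates overnight before treatment. For flow cytometry, cells were PFA-fixed and stained with CellEvent Senescence Green probe (1:500), read at ex 488/em 530/30 nm. For histochemistry, cells were treated 3 h, then kept 24 h in fresh medium before SA-β-Gal staining.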
# PANC1 cells [7] = test: Western blotting (p-p53, p-JNK, p-p38, p-ERK, p-CHK1/2, Mcl1, BID, BAX); conditions: for fold change p-ERK vs Tubulin / fold change p-JNK vs Tubulin / fold change p-p38 vs Tubulin / fold change p-p53 vs Tubulin: PANC1, Fig. 4A, replicate values
# Method: (§3) Total protein extracts were obtained by adding the lysis buffer: 25 mM HEPES pH 7.5, 0.3 M NaCl, 1.5 mM MgCl2, 0.2 mM EDTA, 0.5 mM DTT, 20 mM β-glicerophosphate, 0.1 mM Na3VO4, 0.1% triton X-100; in the presence of protease inhibitors. Twenty μg of protein per sample were loaded and resolved using 8%, 10% or 15% SDS-PAGE polyacrylamide gels, and then transferred onto PVDF membranes, followed by immunodetection using appropriate antibodies, purchased from Santa Cruz Technology: Mcl-1 (sc-819), Cell Signaling Technology: BIM, BID, BAX (#9942), p-p38 (1:2000, #4631), p-p53^ser15 (#9284), p-ERK1/2 (1:2000, #9106), p-CHK1^ser345 and p-CHK2^ser19 (#9931), Promega Corporation-Spain: p-JNK (#V7932), or Sigma-Aldrich: α-tubulin (1:10000, #TP026). Unless indicated, all antibodies were diluted 1:1000. Secondary antibodies conjugated with horseradish peroxidase were purchased from BioRad, and chemiluminescence detection was performed using ECL (Santa Cruz Biotechnology).
# AGS cells [8] = test: as above; conditions: for fold change p-ERK vs Tubulin / fold change p-JNK vs Tubulin / fold change p-p38 vs Tubulin / fold change p-p53 vs Tubulin: Fig. 4A, replicate values; for fold change BAX vs Tubulin / fold change MCL1 vs Tubulin / fold change BID full length vs Tubulin: Fig. S3B
# Method: as §3
smiles,measurement,setting,value
"[NH2][Pt]([NH2])([Cl])[Cl] [CDDP, cisplatin, reference compound]",GSH/GSSG,"PANC1 cells [1]; PANC1, 3, relative to Control = 1",0.8204 and 0.833 and 0.8843
same,GSH/GSSG,"PANC1 cells [1]; PANC1, 24, relative to Control = 1",0.8133 and 0.9393 and 0.9531
same,GSH/GSSG,"AGS cells [2]; AGS, 3, relative to Control = 1",0.992 and 0.9971 and 1.026
same,GSH/GSSG,"AGS cells [2]; AGS, 24, relative to Control = 1",0.8767 and 0.8827 and 0.9433
same,"foci/cell, share of cells in class (Suma 100)",MKN45 cells [3]; class 16-30 foci/cell,6.667
same,"foci/cell, number of cells in class",MKN45 cells [3]; class 16-30 foci/cell,4
same,"foci/cell, share of cells in class (Suma 100)",MKN45 cells [3]; class 31-45 foci/cell,13.3333
same,"foci/cell, number of cells in class",MKN45 cells [3]; class 31-45 foci/cell,8
same,"foci/cell, share of cells in class (Suma 100)",MKN45 cells [3]; class 46-60 foci/cell,16.6667
same,"foci/cell, number of cells in class",MKN45 cells [3]; class 46-60 foci/cell,10
same,"foci/cell, share of cells in class (Suma 100)",MKN45 cells [3]; class <15 foci/cell,0
same,"foci/cell, number of cells in class",MKN45 cells [3]; class <15 foci/cell,0
same,"foci/cell, share of cells in class (Suma 100)",MKN45 cells [3]; class >61 foci/cell,63.3333
same,"foci/cell, number of cells in class",MKN45 cells [3]; class >61 foci/cell,38
same,"colonies (CFUs), mean ± SD","MKN45 cells [4]; MKN45 + NAC 0.5 mM, IC50 concentration",1 ± 1.4
same,"colonies (CFUs), mean ± SD","MKN45 cells [4]; MKN45, IC50 concentration, no NAC",1 ± 1
same,"colonies (CFUs), mean ± SD",AGS cells [5]; AGS + NAC 0.5 mM,0.7 ± 0.6
same,"colonies (CFUs), mean ± SD","AGS cells [5]; AGS, no NAC",0
same,Fold change % Senescence,AGS cells [6],58.33% and 50% and 67.21%
same,"phosphorylation of CHK1/2 (DDR pathway, western blot)","PANC1 cells [7]; PANC1, IC50, 1, 3, 6 or 24 h",induced the phosphorylation
same,fold change BAX vs Tubulin,"PANC1 cells [7]; PANC1, time 1 h, Fig. S3B",1.6915 fold change and 0.9781 fold change and 1.332 fold change
same,fold change MCL1 vs Tubulin,"PANC1 cells [7]; PANC1, time 1 h, Fig. S3B",0.9288 fold change and 1.014 fold change and 1.02 fold change
same,fold change BAX vs Tubulin,"PANC1 cells [7]; PANC1, time 3 h, Fig. S3B",1.86 fold change and 1.118 fold change and 1.518 fold change
same,fold change MCL1 vs Tubulin,"PANC1 cells [7]; PANC1, time 3 h, Fig. S3B",1.904 fold change and 2.322 fold change and 1.672 fold change
same,fold change BAX vs Tubulin,"PANC1 cells [7]; PANC1, time 6 h, Fig. S3B",1.424 fold change and 1.3785 fold change and 1.29 fold change
same,fold change MCL1 vs Tubulin,"PANC1 cells [7]; PANC1, time 6 h, Fig. S3B",1.358 fold change and 1.631 fold change and 1.901 fold change
same,fold change BAX vs Tubulin,"PANC1 cells [7]; PANC1, time 24 h, Fig. S3B",1.469 fold change and 1.617 fold change and 1.511 fold change
same,fold change BID full length vs Tubulin,"PANC1 cells [7]; PANC1, time 24 h, Fig. S3B",1.745 fold change and 2.178 fold change and 1.991 fold change
same,fold change MCL1 vs Tubulin,"PANC1 cells [7]; PANC1, time 24 h, Fig. S3B",1.279 fold change and 1.508 fold change and 1.299 fold change
same,fold change p-ERK vs Tubulin,PANC1 cells [7]; Time 1 h,1.164 fold change and 1.13 fold change and 1.21 fold change
same,fold change p-JNK vs Tubulin,PANC1 cells [7]; Time 1 h,1.373 fold change and 1.201 fold change and 1.17 fold change
same,fold change p-p38 vs Tubulin,PANC1 cells [7]; Time 1 h,1.546 fold change and 1.183 fold change and 0.9863 fold change
same,fold change p-p53 vs Tubulin,PANC1 cells [7]; Time 1 h,1.04 fold change and 1.08 fold change and 0.83 fold change
same,fold change p-ERK vs Tubulin,PANC1 cells [7]; Time 3 h,0.6555 fold change and 1.708 fold change and 1.33 fold change
same,fold change p-p38 vs Tubulin,PANC1 cells [7]; Time 3 h,0.9361 fold change and 0.959 fold change and 0.6722 fold change
same,fold change p-p53 vs Tubulin,PANC1 cells [7]; Time 3 h,1.501 fold change and 1.122 fold change and 1.403 fold change
same,fold change p-ERK vs Tubulin,PANC1 cells [7]; Time 6 h,0.4691 fold change and 2.127 fold change and 1.29 fold change
same,fold change p-JNK vs Tubulin,PANC1 cells [7]; Time 6 h,0.7555 fold change and 0.4269 fold change and 0.7284 fold change
same,fold change p-p38 vs Tubulin,PANC1 cells [7]; Time 6 h,0.8737 fold change and 0.5515 fold change and 0.5907 fold change
same,fold change p-p53 vs Tubulin,PANC1 cells [7]; Time 6 h,2.227 fold change and 1.131 fold change and 2.015 fold change
same,fold change p-ERK vs Tubulin,PANC1 cells [7]; Time 24 h,0.8571 fold change and 2.648 fold change and 1.55 fold change
same,fold change p-JNK vs Tubulin,PANC1 cells [7]; Time 24 h,0.8188 fold change and 0.748 fold change and 1.253 fold change
same,fold change p-p38 vs Tubulin,PANC1 cells [7]; Time 24 h,1.702 fold change and 0.3951 fold change and 0.5063 fold change
same,fold change p-p53 vs Tubulin,PANC1 cells [7]; Time 24 h,2.03 fold change and 4.05 fold change and 2.63 fold change
same,"phosphorylation of CHK1/2 (DDR pathway, western blot)","AGS cells [8]; IC50, 1, 3, 6 or 24 h",induced the phosphorylation
same,fold change p-ERK vs Tubulin,AGS cells [8]; Time 1 h,0.9528 fold change and 0.9782 fold change and 0.8139 fold change
same,fold change p-JNK vs Tubulin,AGS cells [8]; Time 1 h,0.895 fold change and 1.558 fold change and 0.8178 fold change
same,fold change p-p38 vs Tubulin,AGS cells [8]; Time 1 h,1.508 fold change and 0.8638 fold change and 1.487 fold change
same,fold change p-p53 vs Tubulin,AGS cells [8]; Time 1 h,0.9865 fold change and 0.9436 fold change and 1.458 fold change
same,fold change p-ERK vs Tubulin,AGS cells [8]; Time 3 h,1.409 fold change and 0.9423 fold change and 1.158 fold change
same,fold change p-JNK vs Tubulin,AGS cells [8]; Time 3 h,1.014 fold change and 1.185 fold change and 0.899 fold change
same,fold change p-p38 vs Tubulin,AGS cells [8]; Time 3 h,1.39 fold change and 0.6346 fold change and 1.266 fold change
same,fold change p-p53 vs Tubulin,AGS cells [8]; Time 3 h,0.5865 fold change and 1.299 fold change and 1.138 fold change
same,fold change p-ERK vs Tubulin,AGS cells [8]; Time 6 h,2.441 fold change and 1.161 fold change and 1.546 fold change
same,fold change p-JNK vs Tubulin,AGS cells [8]; Time 6 h,1.257 fold change and 1.756 fold change and 0.7623 fold change
same,fold change p-p38 vs Tubulin,AGS cells [8]; Time 6 h,0.9545 fold change and 1.021 fold change and 0.8104 fold change
same,fold change p-p53 vs Tubulin,AGS cells [8]; Time 6 h,1.308 fold change and 1.189 fold change and 1.275 fold change
same,fold change p-ERK vs Tubulin,AGS cells [8]; Time 24 h,2.387 fold change and 2.45 fold change and 1.9989 fold change
same,fold change p-JNK vs Tubulin,AGS cells [8]; Time 24 h,1.302 fold change and 2.33 fold change and 0.8503 fold change
same,fold change p-p38 vs Tubulin,AGS cells [8]; Time 24 h,0.6414 fold change and 1.823 fold change and 1.149 fold change
same,fold change p-p53 vs Tubulin,AGS cells [8]; Time 24 h,3.183 fold change and 2.955 fold change and 1.906 fold change
same,fold change BAX vs Tubulin,AGS cells [8]; time 1 h,1.198 fold change and 1.173 fold change and 0.877 fold change
same,fold change MCL1 vs Tubulin,AGS cells [8]; time 1 h,1.103 fold change and 0.99 fold change and 0.761 fold change
same,fold change BAX vs Tubulin,AGS cells [8]; time 3 h,0.789 fold change and 1.149 fold change and 1.345 fold change
same,fold change MCL1 vs Tubulin,AGS cells [8]; time 3 h,0.575 fold change and 0.967 fold change and 0.513 fold change
same,fold change BAX vs Tubulin,AGS cells [8]; time 6 h,1.098 fold change and 1.54 fold change and 2.188 fold change
same,fold change BID full length vs Tubulin,AGS cells [8]; time 6 h,0.649 fold change and 1.175 fold change and 0.953 fold change
same,fold change MCL1 vs Tubulin,AGS cells [8]; time 6 h,1.101 fold change and 0.938 fold change and 0.603 fold change
same,fold change BID full length vs Tubulin,AGS cells [8]; time 24 h,1.562 fold change and 1.807 fold change and 1.427 fold change
same,fold change MCL1 vs Tubulin,AGS cells [8]; time 24 h,0.943 fold change and 0.926 fold change and 0.668 fold change
